From ChEMBL document CHEMBL3885881, “DrugMatrix”

Organism: Rattus norvegicus
Test: DrugMatrix - Regimen: Daily Repeat
Type: toxicity, organism-based, Sprague-Dawley
Design: regimen Daily Repeat, gender Male, age 6-8 weeks
Conditions: in vivo, po, route oral GAVAGE, vehicle .5 % CMC; for BASOPHIL / EOSINOPHIL / ERYTHROCYTE COUNT / HEMATOCRIT / HEMOGLOBIN / LEUKOCYTE COUNT / LYMPHOCYTE / MEAN CORPUSCULAR HEMOGLOBIN / MEAN CORPUSCULAR HEMOGLOBIN CONCENTRATION / MEAN CORPUSCULAR VOLUME / MONOCYTE / NEUTROPHIL / PLATELET COUNT: tissue Blood; for ALANINE AMINOTRANSFERASE / ALBUMIN / ALKALINE PHOSPHATASE / ASPARTATE AMINOTRANSFERASE / BLOOD UREA NITROGEN / CHLORIDE / CHOLESTEROL / CREATINE PHOSPHOKINASE / CREATININE / GLUCOSE / PHOSPHORUS / POTASSIUM / SODIUM / TOTAL BILIRUBIN / TOTAL PROTEIN: tissue Plasma
[1] = 0 mg/kg, 72 h, dose level Control, time 3 day
[2] = 0 mg/kg, 120 h, dose level Control, time 5 day
[3] = 8 mg/kg, 72 h, dose level Low, time 3 day
[4] = 8 mg/kg, 120 h, dose level Low, time 5 day
[5] = 24 mg/kg, 72 h, dose level High, time 3 day
[6] = 24 mg/kg, 120 h, dose level High, time 5 day

`CCc1cccc2c3c([nH]c12)C(CC)(CC(=O)O)OCC3` (stereo not drawn) [ETODOLAC] was tested, and the BASOPHIL [1] was 1.52%, the EOSINOPHIL [1] was 0.98% and the “ERYTHROCYTE COUNT” value [1] was 6.96 x10E6/uL. For the same compound, the HEMATOCRIT [1] was 44.65%, the HEMOGLOBIN [1] was 13.62 G/DL and the “LEUKOCYTE COUNT” value [1] was 9.83 x10E3/uL. The LYMPHOCYTE [1] was 76.48%, the “MEAN CORPUSCULAR HEMOGLOBIN” value [1] was 19.57 pg and the “MEAN CORPUSCULAR HEMOGLOBIN CONCENTRATION” value [1] was 30.47 G/DL. The “MEAN CORPUSCULAR VOLUME” value [1] was 64.22 fL, the MONOCYTE [1] was 2.13% and the NEUTROPHIL [1] was 18.6%. For the same compound, the “PLATELET COUNT” value [1] was 1217.17 x10E3/uL, the “ALANINE AMINOTRANSFERASE” value [1] was 41 u/L and the ALBUMIN [1] was 3.77 G/DL. The “ALKALINE PHOSPHATASE” value [1] was 411.83 u/L, the “ASPARTATE AMINOTRANSFERASE” value [1] was 62.83 u/L and the “BLOOD UREA NITROGEN” value [1] was 15.17 mg/dL. The CHLORIDE [1] was 104.33 MEQ/L, the CHOLESTEROL [1] was 71.17 mg/dL and the “CREATINE PHOSPHOKINASE” value [1] was 123.5 u/L. It also gave a CREATININE [1] of 0.55 mg/dL, a GLUCOSE [1] of 182.67 mg/dL and a PHOSPHORUS [1] of 11.23 mg/dL. For the same compound, the POTASSIUM [1] was 7.03 MEQ/L, the SODIUM [1] was 148 MEQ/L and the “TOTAL BILIRUBIN” value [1] was 0.57 mg/dL. For the same compound, the “TOTAL PROTEIN” value [1] was 6.85 G/DL, the BASOPHIL [2] was 1.35% and the EOSINOPHIL [2] was 0.43%. The “ERYTHROCYTE COUNT” value [2] was 6.96 x10E6/uL, the HEMATOCRIT [2] was 44.35% and the HEMOGLOBIN [2] was 13.98 G/DL. The “LEUKOCYTE COUNT” value [2] was 9.45 x10E3/uL, the LYMPHOCYTE [2] was 80.83% and the “MEAN CORPUSCULAR HEMOGLOBIN” value [2] was 20.1 pg. The “MEAN CORPUSCULAR HEMOGLOBIN CONCENTRATION” value [2] was 31.52 G/DL, the “MEAN CORPUSCULAR VOLUME” value [2] was 63.72 fL and the MONOCYTE [2] was 2.37%. For the same compound, the NEUTROPHIL [2] was 14.05%, the “PLATELET COUNT” value [2] was 1298 x10E3/uL and the “ALANINE AMINOTRANSFERASE” value [2] was 42.17 u/L. For the same compound, the ALBUMIN [2] was 3.77 G/DL, the “ALKALINE PHOSPHATASE” value [2] was 419 u/L and the “ASPARTATE AMINOTRANSFERASE” value [2] was 66.67 u/L. The “BLOOD UREA NITROGEN” value [2] was 16.67 mg/dL, the CHLORIDE [2] was 103.17 MEQ/L and the CHOLESTEROL [2] was 66.33 mg/dL. The “CREATINE PHOSPHOKINASE” value [2] was 148.33 u/L, the CREATININE [2] was 0.58 mg/dL and the GLUCOSE [2] was 196.83 mg/dL. It also gave a PHOSPHORUS [2] of 11.8 mg/dL, a POTASSIUM [2] of 6.47 MEQ/L and an SODIUM [2] of 148.33 MEQ/L. The “TOTAL BILIRUBIN” value [2] was 0.53 mg/dL, the “TOTAL PROTEIN” value [2] was 6.77 G/DL and the BASOPHIL [3] was 2.87%. For the same compound, the EOSINOPHIL [3] was 0.5%, the “ERYTHROCYTE COUNT” value [3] was 7.29 x10E6/uL and the HEMATOCRIT [3] was 46.3%. For the same compound, the HEMOGLOBIN [3] was 14.43 G/DL, the “LEUKOCYTE COUNT” value [3] was 10.83 x10E3/uL and the LYMPHOCYTE [3] was 74.43%. The “MEAN CORPUSCULAR HEMOGLOBIN” value [3] was 19.83 pg, the “MEAN CORPUSCULAR HEMOGLOBIN CONCENTRATION” value [3] was 31.17 G/DL and the “MEAN CORPUSCULAR VOLUME” value [3] was 63.57 fL. The MONOCYTE [3] was 2.53%, the NEUTROPHIL [3] was 19.13% and the “PLATELET COUNT” value [3] was 1601 x10E3/uL. For the same compound, the “ALANINE AMINOTRANSFERASE” value [3] was 44.33 u/L, the ALBUMIN [3] was 3.8 G/DL and the “ALKALINE PHOSPHATASE” value [3] was 358.67 u/L. For the same compound, the “ASPARTATE AMINOTRANSFERASE” value [3] was 64 u/L, the “BLOOD UREA NITROGEN” value [3] was 12.33 mg/dL and the CHLORIDE [3] was 102.67 MEQ/L. For the same compound, the CHOLESTEROL [3] was 62 mg/dL, the “CREATINE PHOSPHOKINASE” value [3] was 129.67 u/L and the CREATININE [3] was 0.57 mg/dL. The GLUCOSE [3] was 182.33 mg/dL, the PHOSPHORUS [3] was 13.07 mg/dL and the POTASSIUM [3] was 7.23 MEQ/L. For the same compound, the SODIUM [3] was 148.67 MEQ/L, the “TOTAL BILIRUBIN” value [3] was 0.37 mg/dL and the “TOTAL PROTEIN” value [3] was 6.7 G/DL. For the same compound, the BASOPHIL [4] was 2.2%, the EOSINOPHIL [4] was 0.17% and the “ERYTHROCYTE COUNT” value [4] was 7.21 x10E6/uL. For the same compound, the HEMATOCRIT [4] was 45.2%, the HEMOGLOBIN [4] was 14.13 G/DL and the “LEUKOCYTE COUNT” value [4] was 12.43 x10E3/uL. The LYMPHOCYTE [4] was 78.07%, the “MEAN CORPUSCULAR HEMOGLOBIN” value [4] was 19.67 pg and the “MEAN CORPUSCULAR HEMOGLOBIN CONCENTRATION” value [4] was 31.37 G/DL. For the same compound, the “MEAN CORPUSCULAR VOLUME” value [4] was 62.7 fL, the MONOCYTE [4] was 3.4% and the NEUTROPHIL [4] was 15.23%. The “PLATELET COUNT” value [4] was 1492.67 x10E3/uL, the “ALANINE AMINOTRANSFERASE” value [4] was 41.67 u/L and the ALBUMIN [4] was 3.8 G/DL. For the same compound, the “ALKALINE PHOSPHATASE” value [4] was 376 u/L, the “ASPARTATE AMINOTRANSFERASE” value [4] was 62.67 u/L and the “BLOOD UREA NITROGEN” value [4] was 16 mg/dL. For the same compound, the CHLORIDE [4] was 102 MEQ/L, the CHOLESTEROL [4] was 67.33 mg/dL and the “CREATINE PHOSPHOKINASE” value [4] was 145 u/L. For the same compound, the CREATININE [4] was 0.6 mg/dL, the GLUCOSE [4] was 181.33 mg/dL and the PHOSPHORUS [4] was 12.37 mg/dL. The POTASSIUM [4] was 6.73 MEQ/L, the SODIUM [4] was 149 MEQ/L and the “TOTAL BILIRUBIN” value [4] was 0.33 mg/dL. For the same compound, the “TOTAL PROTEIN” value [4] was 6.57 G/DL, the BASOPHIL [5] was 1.07% and the EOSINOPHIL [5] was 0.27%. For the same compound, the “ERYTHROCYTE COUNT” value [5] was 5.61 x10E6/uL, the HEMATOCRIT [5] was 34.27% and the HEMOGLOBIN [5] was 10.67 G/DL. For the same compound, the “LEUKOCYTE COUNT” value [5] was 17.3 x10E3/uL, the LYMPHOCYTE [5] was 66.33% and the “MEAN CORPUSCULAR HEMOGLOBIN” value [5] was 19 pg. The “MEAN CORPUSCULAR HEMOGLOBIN CONCENTRATION” value [5] was 31.13 G/DL, the “MEAN CORPUSCULAR VOLUME” value [5] was 61.13 fL and the MONOCYTE [5] was 3.5%. For the same compound, the NEUTROPHIL [5] was 27.87%, the “PLATELET COUNT” value [5] was 1221.33 x10E3/uL and the “ALANINE AMINOTRANSFERASE” value [5] was 31 u/L. The ALBUMIN [5] was 2.83 G/DL, the “ALKALINE PHOSPHATASE” value [5] was 157 u/L and the “ASPARTATE AMINOTRANSFERASE” value [5] was 47.67 u/L. For the same compound, the “BLOOD UREA NITROGEN” value [5] was 12.67 mg/dL, the CHLORIDE [5] was 105 MEQ/L and the CHOLESTEROL [5] was 58.67 mg/dL. The “CREATINE PHOSPHOKINASE” value [5] was 142.33 u/L, the CREATININE [5] was 0.47 mg/dL and the GLUCOSE [5] was 168 mg/dL. It also gave a PHOSPHORUS [5] of 11.97 mg/dL, a POTASSIUM [5] of 6.27 MEQ/L and an SODIUM [5] of 148.33 MEQ/L. For the same compound, the “TOTAL BILIRUBIN” value [5] was 0.2 mg/dL, the “TOTAL PROTEIN” value [5] was 5 G/DL and the BASOPHIL [6] was 1.2%. For the same compound, the EOSINOPHIL [6] was 0.25%, the “ERYTHROCYTE COUNT” value [6] was 4.38 x10E6/uL and the HEMATOCRIT [6] was 26.95%. The HEMOGLOBIN [6] was 8.35 G/DL, the “LEUKOCYTE COUNT” value [6] was 3.5 x10E3/uL and the LYMPHOCYTE [6] was 64.7%. The “MEAN CORPUSCULAR HEMOGLOBIN” value [6] was 19.1 pg, the “MEAN CORPUSCULAR HEMOGLOBIN CONCENTRATION” value [6] was 31 G/DL and the “MEAN CORPUSCULAR VOLUME” value [6] was 61.65 fL. For the same compound, the MONOCYTE [6] was 3.45%, the NEUTROPHIL [6] was 24.5% and the “PLATELET COUNT” value [6] was 1541 x10E3/uL. For the same compound, the “ALANINE AMINOTRANSFERASE” value [6] was 27 u/L, the ALBUMIN [6] was 2.6 G/DL and the “ALKALINE PHOSPHATASE” value [6] was 256 u/L. For the same compound, the “ASPARTATE AMINOTRANSFERASE” value [6] was 105 u/L, the “BLOOD UREA NITROGEN” value [6] was 64 mg/dL and the CHLORIDE [6] was 103 MEQ/L. For the same compound, the CHOLESTEROL [6] was 43 mg/dL, the “CREATINE PHOSPHOKINASE” value [6] was 183 u/L and the CREATININE [6] was 0.6 mg/dL. It also gave a GLUCOSE [6] of 107 mg/dL, a PHOSPHORUS [6] of 19.1 mg/dL and a POTASSIUM [6] of 9.9 MEQ/L. For the same compound, the SODIUM [6] was 141 MEQ/L, the “TOTAL BILIRUBIN” value [6] was 0.3 mg/dL and the “TOTAL PROTEIN” value [6] was 5.3 G/DL.
